From patent US10435371B2, “Multifunctional aminoquinoline therapeutic agent” (LOHOCLA RESEARCH CORPORATION, priority 2014, dated 2019)

Experiments:
V1A (Vasopressin) = V1A (Vasopressin) (Homo sapiens, UniProt P37288); assay: PDSP radioligand binding
ethanol dependent rats = assay: Operant responding for alcohol in ethanol vapor-exposed dependent rats; format: in vivo, rat; settings: ethanol vapor-exposed rats; FIG. 18
Description: This example illustrates that ethanol dependent rats are motivated to work for ethanol reward during a period of forced abstinence and that DCUK-OEt reduces responding for the alcohol reward.
The methods used in this study are extensively described in (Vendruscolo et al., 2012). The rats were first trained to self-administer ethanol in an operant chamber. The rats were given free-choice access to alcohol (10% w/v) and water for 1 day in their home cages to habituate them to the taste of alcohol. The rats were then subjected to an overnight session in the operant chambers with access to one lever that delivered water (FR1). Food was available ad libitum during this training. After 1 day off, the rats were subjected to a 2 hour session (FR1) for 1 day and a 1 hour session (FR1) the next day, with one lever delivering alcohol. All of the subsequent sessions lasted 30 minutes, and two levers were available (left lever: water; right lever: alcohol). Once trained, the rats were made dependent by chronic, intermittent exposure to alcohol vapors (Gilpin et al., 2008). They underwent cycles of 14 hours of ethanol exposure (blood alcohol levels during vapor exposure ranged between 150 and 250 mg %) and 10 hours in the absence of ethanol vapor, during which behavioral testing for acute withdrawal occurred (i.e., 6-8 hours after vapor was turned off, when brain and blood alcohol levels were negligible). Nondependent rats were those not exposed to alcohol vapor. Pharmacological testing occurred after at least 2 months of vapor exposure, when full dependence was observed. DCUKA-OEt was administered i.p. at the doses specified in FIG. 18, sixty minutes prior to placing the animal in the operant chamber. The vehicle for DCUK-OEt was injected in certain animals as a control.

delta opiate receptor = delta opiate receptor (Homo sapiens, UniProt P41143); assay: cAMP accumulation, HeLa cells transfected with D1 receptor, DOR and AC5; format: cell-based; parameters: expressed in transfected cells; settings: HeLa cells, AC5
Chain of delta opiate receptor (P41143 whole entry): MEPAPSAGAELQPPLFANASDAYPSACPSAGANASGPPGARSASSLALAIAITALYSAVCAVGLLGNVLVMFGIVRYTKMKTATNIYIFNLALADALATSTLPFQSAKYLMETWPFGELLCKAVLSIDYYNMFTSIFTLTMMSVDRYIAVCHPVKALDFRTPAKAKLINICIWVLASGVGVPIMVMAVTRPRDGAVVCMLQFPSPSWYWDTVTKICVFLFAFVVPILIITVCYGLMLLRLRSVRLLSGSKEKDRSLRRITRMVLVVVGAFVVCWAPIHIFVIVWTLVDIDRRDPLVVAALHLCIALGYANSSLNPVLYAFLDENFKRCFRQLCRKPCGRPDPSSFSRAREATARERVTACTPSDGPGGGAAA

[1] = tested on: rats treated with streptozotocin; assay: Combination with aspirin, STZ-induced neuropathic pain (von Frey); format: in vivo, rat; settings: FIG. 16
Method: After administration of streptozotocin (STZ) as described in Example 5, rats were tested for allodynia using a von Frey apparatus. Sixty minutes prior to testing, rats were divided into four groups. Group 1 received vehicle; group 2 received DCUKA; group 3 received aspirin; and group 4 received a combination of DCUKA and aspirin.

5-HT1A (Serotonin Rs) = 5-HT1A (Serotonin Rs) (Homo sapiens, UniProt P08908); assay: PDSP radioligand binding
CB1 Receptor = target: T1, CB1 Receptor (Homo sapiens, UniProt P21554); assay: PDSP radioligand displacement, [^3H]CP55940; parameters: species or system rat; settings: read-out: Binding constant Ki, CB1 Receptor
T1 construct: expressed in transfected cells
T1 sequence (P21554 whole entry): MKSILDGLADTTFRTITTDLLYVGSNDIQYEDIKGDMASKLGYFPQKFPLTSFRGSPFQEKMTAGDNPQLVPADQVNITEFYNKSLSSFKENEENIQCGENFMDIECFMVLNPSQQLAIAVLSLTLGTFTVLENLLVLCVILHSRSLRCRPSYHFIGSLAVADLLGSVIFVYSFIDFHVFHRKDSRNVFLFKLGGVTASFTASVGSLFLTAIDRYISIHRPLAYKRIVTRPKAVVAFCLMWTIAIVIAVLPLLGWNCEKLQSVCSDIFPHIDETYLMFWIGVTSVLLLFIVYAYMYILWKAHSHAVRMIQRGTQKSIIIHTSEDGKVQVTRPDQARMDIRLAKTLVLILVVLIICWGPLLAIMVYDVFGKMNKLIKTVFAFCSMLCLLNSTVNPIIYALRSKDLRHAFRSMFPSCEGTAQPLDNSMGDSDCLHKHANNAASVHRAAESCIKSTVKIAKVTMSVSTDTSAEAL

MOR (μ opiate receptor) = MOR (μ opiate receptor) (Homo sapiens, UniProt P35372); assay: PDSP radioligand binding, [^3H]DAMGO
Chain of MOR (μ opiate receptor) (P35372 whole entry): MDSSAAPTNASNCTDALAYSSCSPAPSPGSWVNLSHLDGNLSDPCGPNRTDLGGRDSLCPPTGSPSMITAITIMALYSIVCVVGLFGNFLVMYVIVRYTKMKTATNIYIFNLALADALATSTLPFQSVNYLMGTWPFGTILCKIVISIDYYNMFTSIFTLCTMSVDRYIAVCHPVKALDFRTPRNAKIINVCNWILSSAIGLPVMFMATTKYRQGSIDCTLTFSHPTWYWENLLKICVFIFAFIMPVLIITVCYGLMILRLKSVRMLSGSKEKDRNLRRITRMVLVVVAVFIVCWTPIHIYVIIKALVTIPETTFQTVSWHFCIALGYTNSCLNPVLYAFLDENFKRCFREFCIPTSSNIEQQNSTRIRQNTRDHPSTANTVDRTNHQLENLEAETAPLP

[2] = target: β1 (Adrenergic Rs (beta adrenergic)) (Homo sapiens, UniProt P08588); assay: PDSP radioligand binding
Chain of β1 (Adrenergic Rs (beta adrenergic)) (P08588 whole entry): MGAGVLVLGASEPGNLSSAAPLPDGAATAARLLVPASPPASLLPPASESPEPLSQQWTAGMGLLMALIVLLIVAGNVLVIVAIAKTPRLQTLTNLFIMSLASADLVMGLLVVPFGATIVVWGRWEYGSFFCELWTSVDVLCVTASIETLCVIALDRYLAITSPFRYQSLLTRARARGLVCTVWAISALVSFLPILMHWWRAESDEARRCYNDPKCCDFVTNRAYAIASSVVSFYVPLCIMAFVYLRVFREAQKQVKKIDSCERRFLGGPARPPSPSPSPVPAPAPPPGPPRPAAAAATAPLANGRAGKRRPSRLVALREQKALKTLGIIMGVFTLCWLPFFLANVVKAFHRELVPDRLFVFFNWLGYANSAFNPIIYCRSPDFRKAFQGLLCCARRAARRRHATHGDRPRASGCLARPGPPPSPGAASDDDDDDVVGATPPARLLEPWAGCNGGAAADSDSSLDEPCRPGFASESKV

D1 (Dopamine Rs) = D1 (Dopamine Rs) (Homo sapiens, UniProt P21728); assay: PDSP radioligand binding
Chain of D1 (Dopamine Rs) (P21728 whole entry): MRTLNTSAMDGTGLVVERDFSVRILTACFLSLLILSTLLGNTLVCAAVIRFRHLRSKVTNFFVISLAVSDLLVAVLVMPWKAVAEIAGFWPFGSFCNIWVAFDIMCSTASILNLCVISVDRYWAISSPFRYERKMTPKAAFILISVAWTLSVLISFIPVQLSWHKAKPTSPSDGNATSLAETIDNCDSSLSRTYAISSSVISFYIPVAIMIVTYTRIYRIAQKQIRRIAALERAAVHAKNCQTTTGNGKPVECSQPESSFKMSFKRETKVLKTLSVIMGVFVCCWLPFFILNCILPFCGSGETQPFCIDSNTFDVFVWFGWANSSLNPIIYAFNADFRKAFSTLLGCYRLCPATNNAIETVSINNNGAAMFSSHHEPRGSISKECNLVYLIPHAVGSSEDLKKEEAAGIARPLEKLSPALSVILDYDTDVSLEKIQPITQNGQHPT

Serotonin Transporter = Serotonin Transporter (Homo sapiens, UniProt P31645); assay: PDSP radioligand binding
[3] = tested on: rats treated with cisplatin; assay: Prevention of cisplatin-induced neuropathic pain; format: in vivo, rat; settings: 50 mg/kg intragastric twice daily for 14 days starting 1 h after first cisplatin injection; FIG. 14
Method: This example illustrates that treatment of animals with DCUKA following insult, but prior to development of neuropathic pain, can prevent the development of the pain. Rats were treated with cisplatin or CFA, and mechanical pain threshold was measured, as described under Example 5.
Prevention of Cisplatin-Induced Neuropathic Pain by DCUKA. One day after baseline measurement of the mechanical pain threshold, rats were injected i.p. with cisplatin. Cisplatin injections were again given on days 4, 8, and 12. Starting one hour after the first cisplatin injection, rats were given 50 mg/kg DCUKA or vehicle via intragastric gavage twice daily for 14 days. After the last treatment (day 15) the mechanical pain threshold was again tested. The pain threshold was then tested once weekly for 4 weeks, with no further treatments.

D2 (Dopamine Rs) = D2 (Dopamine Rs) (Homo sapiens, UniProt P14416); assay: PDSP radioligand binding
[4] = tested on: rats treated with cisplatin; assay: Reversal of cisplatin-induced neuropathic pain (von Frey mechanical pain threshold); format: in vivo, rat; settings: 50 mg/kg oral
[5] = tested on: rats treated with Complete Freund's Adjuvant; assay: Reversal of CFA-induced neuropathic pain (von Frey mechanical pain threshold); format: in vivo, rat; settings: for Mechanical pain threshold, ratio to baseline: 1 hour
5-HT1B (Serotonin Rs) = 5-HT1B (Serotonin Rs) (Homo sapiens, UniProt P28222); assay: PDSP radioligand binding
[6] = target: M2 (Muscarinic Cholinergic Rs) (Homo sapiens, UniProt P08172); assay: PDSP radioligand binding
Chain of M2 (Muscarinic Cholinergic Rs) (P08172 whole entry): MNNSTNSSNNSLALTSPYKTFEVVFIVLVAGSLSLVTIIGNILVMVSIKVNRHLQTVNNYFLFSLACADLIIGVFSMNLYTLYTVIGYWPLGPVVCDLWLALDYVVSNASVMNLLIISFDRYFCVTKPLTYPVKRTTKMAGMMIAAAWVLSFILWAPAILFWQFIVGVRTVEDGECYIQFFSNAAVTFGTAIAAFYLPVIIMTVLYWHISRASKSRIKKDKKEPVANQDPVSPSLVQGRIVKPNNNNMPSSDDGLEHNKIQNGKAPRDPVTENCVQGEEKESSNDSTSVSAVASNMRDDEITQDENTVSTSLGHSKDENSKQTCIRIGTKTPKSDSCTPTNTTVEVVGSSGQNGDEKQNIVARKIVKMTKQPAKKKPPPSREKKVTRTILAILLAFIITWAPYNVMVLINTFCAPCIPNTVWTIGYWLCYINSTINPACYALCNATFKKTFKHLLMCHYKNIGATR

EP2 (Prostaglandin Rs) = EP2 (Prostaglandin Rs) (Homo sapiens, UniProt P43116); assay: PDSP radioligand binding; settings: Table 3, the 6th table r12c1; read-out: Ki, EP2 (lack of affinity)
Chain of EP2 (Prostaglandin Rs) (P43116 whole entry): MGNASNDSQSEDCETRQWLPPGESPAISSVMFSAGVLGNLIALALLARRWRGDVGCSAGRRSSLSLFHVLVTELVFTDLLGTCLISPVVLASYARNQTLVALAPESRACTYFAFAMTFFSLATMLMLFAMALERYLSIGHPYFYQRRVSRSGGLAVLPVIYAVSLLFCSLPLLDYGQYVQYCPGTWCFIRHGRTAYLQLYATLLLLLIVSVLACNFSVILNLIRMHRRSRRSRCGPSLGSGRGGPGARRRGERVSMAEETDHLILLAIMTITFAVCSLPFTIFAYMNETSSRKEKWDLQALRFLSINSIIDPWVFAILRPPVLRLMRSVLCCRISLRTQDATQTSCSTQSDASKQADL

[7] = tested on: rats treated with streptozotocin; assay: Reversal of streptozotocin-induced (diabetic) neuropathic pain (von Frey); format: in vivo, rat
5-HT2B (Serotonin Rs) = 5-HT2B (Serotonin Rs) (Homo sapiens, UniProt P41595); assay: PDSP radioligand binding
Chain of 5-HT2B (Serotonin Rs) (P41595 whole entry): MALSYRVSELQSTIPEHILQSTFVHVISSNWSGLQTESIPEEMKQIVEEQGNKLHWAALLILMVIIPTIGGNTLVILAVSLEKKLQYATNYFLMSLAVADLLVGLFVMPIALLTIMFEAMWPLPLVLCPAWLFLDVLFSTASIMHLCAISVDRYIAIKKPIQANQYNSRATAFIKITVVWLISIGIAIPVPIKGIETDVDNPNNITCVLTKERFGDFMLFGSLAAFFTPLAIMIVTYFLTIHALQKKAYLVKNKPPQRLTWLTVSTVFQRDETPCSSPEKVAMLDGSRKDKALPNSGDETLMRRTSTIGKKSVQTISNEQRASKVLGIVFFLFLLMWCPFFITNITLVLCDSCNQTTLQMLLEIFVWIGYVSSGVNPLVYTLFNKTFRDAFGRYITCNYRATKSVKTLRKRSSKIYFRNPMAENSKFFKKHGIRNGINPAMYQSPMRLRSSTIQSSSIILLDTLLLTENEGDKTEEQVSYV

[8] = target: M1 (Muscarinic Cholinergic Rs) (Homo sapiens, UniProt P11229); assay: PDSP radioligand binding
Chain of M1 (Muscarinic Cholinergic Rs) (P11229 whole entry): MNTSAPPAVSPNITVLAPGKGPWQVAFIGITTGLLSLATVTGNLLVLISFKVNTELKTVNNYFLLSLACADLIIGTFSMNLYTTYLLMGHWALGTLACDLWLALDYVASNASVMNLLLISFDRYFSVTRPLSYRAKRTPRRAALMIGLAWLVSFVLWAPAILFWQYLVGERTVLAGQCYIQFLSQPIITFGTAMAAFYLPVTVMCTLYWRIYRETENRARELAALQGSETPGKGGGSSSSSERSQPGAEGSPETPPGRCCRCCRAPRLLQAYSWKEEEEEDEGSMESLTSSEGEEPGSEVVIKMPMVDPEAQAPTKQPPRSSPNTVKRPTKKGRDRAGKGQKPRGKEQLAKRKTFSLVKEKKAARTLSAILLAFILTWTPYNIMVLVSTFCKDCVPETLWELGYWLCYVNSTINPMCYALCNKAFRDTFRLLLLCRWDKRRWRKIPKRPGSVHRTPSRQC

[9] = target: β2 (Adrenergic Rs (beta adrenergic)) (Homo sapiens, UniProt P07550); assay: PDSP radioligand binding
Chain of β2 (Adrenergic Rs (beta adrenergic)) (P07550 whole entry): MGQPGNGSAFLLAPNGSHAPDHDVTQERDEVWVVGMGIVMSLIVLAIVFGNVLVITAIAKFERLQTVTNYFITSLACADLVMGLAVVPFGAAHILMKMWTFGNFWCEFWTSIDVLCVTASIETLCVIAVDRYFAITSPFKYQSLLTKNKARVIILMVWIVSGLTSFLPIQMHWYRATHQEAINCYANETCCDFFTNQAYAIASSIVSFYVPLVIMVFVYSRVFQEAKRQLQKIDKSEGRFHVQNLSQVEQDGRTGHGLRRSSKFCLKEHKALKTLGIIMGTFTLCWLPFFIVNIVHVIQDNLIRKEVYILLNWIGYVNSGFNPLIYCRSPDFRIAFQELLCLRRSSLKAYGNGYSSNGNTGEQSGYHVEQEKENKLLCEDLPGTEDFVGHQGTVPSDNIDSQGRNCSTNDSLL

Chain of V1A (Vasopressin) (P37288 whole entry): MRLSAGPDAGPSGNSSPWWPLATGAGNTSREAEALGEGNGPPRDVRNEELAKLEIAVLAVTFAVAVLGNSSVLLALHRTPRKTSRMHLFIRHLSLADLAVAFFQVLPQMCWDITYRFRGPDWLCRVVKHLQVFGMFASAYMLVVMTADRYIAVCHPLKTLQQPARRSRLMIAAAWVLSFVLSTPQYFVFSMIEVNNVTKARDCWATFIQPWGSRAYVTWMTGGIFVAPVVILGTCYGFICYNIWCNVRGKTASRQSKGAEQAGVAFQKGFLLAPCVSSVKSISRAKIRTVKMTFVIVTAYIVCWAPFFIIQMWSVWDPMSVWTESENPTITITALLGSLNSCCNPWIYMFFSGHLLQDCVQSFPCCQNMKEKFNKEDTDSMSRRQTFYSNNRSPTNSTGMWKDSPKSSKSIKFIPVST

With `O=C(O)c1cc(NC(=O)N(c2ccccc2)c2ccccc2)c2c(Cl)cc(Cl)cc2n1` [DCUKA, 5,7-dichloro-4-(3,3-diphenylureido)quinoline-2-carboxylic acid] the Ki (V1A (Vasopressin)) was greater than 10 µM, the “Alcohol self-administration compared to baseline” value (ethanol dependent rats) was “no significant effect on repressing alcohol self-administration” and the “Character of action at the delta opiate receptor” value (delta opiate receptor) was “agonist”. The IC50 (delta opiate receptor; D1, DOR, 10 μM DA, DCUKA 0.25-20 μM, regression analysis, FIG. 3, read-out: IC50 for inhibition of cAMP accumulation) was 3.9 ± 0.47 µM, the “Effect on allodynia, combination of DCUKA and aspirin” value ([1]; DCUKA 12.5 mg/kg plus aspirin 25 mg/kg) was “completely reverse the hyper-responsiveness” and the “Effect on allodynia, alone” value ([1]; DCUKA 12.5 mg/kg, 60 min before test) was “do not have any significant effect on allodynia”. For the same molecule, the Ki (5-HT1A (Serotonin Rs)) was greater than 10 µM, the Ki (CB1 Receptor) was 11 ± 2.7 µM and the Ki (MOR (μ opiate receptor)) was greater than 10 µM. It also gave a Ki [2] greater than 10 µM, a Ki (D1 (Dopamine Rs)) greater than 10 µM and a Ki (Serotonin Transporter) greater than 10 µM. The “Mechanical pain threshold (paw withdrawal threshold) over days” value [3] was “no statistically significant decrease of pain threshold compared to the pre-cisplatin baseline”, the Ki (D2 (Dopamine Rs)) was greater than 10 µM and the “Mechanical pain threshold, ratio to baseline” value ([4]; cisplatin i.p. 7 mg/kg total, day 14, 1 and 2 hours, FIG. 6) was “significantly reversed the drop in mechanical pain threshold”. For the same molecule, the “Mechanical pain threshold, ratio to pre-cisplatin baseline” value ([4]; rats, 1 hour after dosing, six experiments combined, FIG. 5) was “increases the mechanical pain threshold to control levels”, the “Mechanical pain threshold, ratio to baseline” value ([5]; 48-60 h after CFA, 50 mg/kg oral, three experiments combined, FIG. 7) was “a level not significantly different from the baseline level” and the “Mechanical pain threshold, ratio to baseline” value ([5]; 48 h after CFA, 50 mg/kg, DCUKA n=17, BCUKA n=6, FIG. 8) was “reversed the mechanical pain threshold to a level not significantly different from baseline”. For the same molecule, the “Doses that significantly reversed the CFA-induced decrease of mechanical pain threshold” value ([5]; oral, 60 min, meta-analysis of five experiments, FIG. 9) was no less than 30 mg/kg, the Ki (5-HT1B (Serotonin Rs)) was greater than 10 µM and the Ki [6] was greater than 10 µM. For the same molecule, the Ki (EP2 (Prostaglandin Rs)) was greater than 10 µM, the “Mechanical pain threshold, ratio to baseline” value ([7]; 14 days after STZ, 40 or 50 mg/kg oral, 90 minutes, three experiments combined, FIG. 10) was “reversed to the baseline level” and the “Difference between 50 mg/kg DCUKA and 0 mg/kg DCUKA in ratio of mechanical pain threshold to pre-STZ threshold” value ([7]; Fisher's LSD, p<0.0001, FIG. 10) was 0.60. The “Doses that reversed the effect of STZ on pain threshold back to baseline” value ([7]; oral, 90 minutes, meta-analysis of four experiments, FIG. 11) was no less than 30 mg/kg, the Ki (5-HT2B (Serotonin Rs)) was greater than 10 µM and the Ki [8] was greater than 10 µM. The Ki [9] was greater than 10 µM.
